In patent publication US20260240878A1, “PTP1B/TC-PTP DUAL INHIBITORS AND PROTEIN DEGRADERS” (Purdue Research Foundation, priority 2023, published 2026):
*1 amine or outer side, *2 acyl side, *3 side chain or, on linkers, in order; H or OH if unused. Where a SMILES comes first, the peptide text is derived from it. [ ]: non-standard residue; d: D form. The star is where a group is joined. NHBn(4-(4-Me-thiazol-5-yl)) = Cc1ncsc1-c1ccc(CN*)cc1; NHCH2(1,3-C6H4)CH2CO = O=C(Cc1cccc(CN[*:1])c1)[*:2]; F2Pmp = N[C@@H](Cc1ccc(C(F)(F)P(=O)(O)O)cc1)C(=O)O; Phenylacetyl(4-OH,3-OMe) = COc1cc(CC(=O)*)ccc1O; Benzoyl(3-Br,4-Me) = Cc1ccc(C(=O)*)cc1Br; Hyp = O=C(O)[C@@H]1C[C@@H](O)CN1; X2 = O=C(CCN1CCN([*:1])CC1)[*:2]; X3 = O=C(CCC1CCN([*:1])CC1)[*:2]; Tle = CC(C)(C)[C@H](N)C(=O)O; 4Amb = NCc1ccc(C(=O)O)cc1; PEG1 = NCCOCCC(=O)O

Legend:
PTP1B [1] = target: T1, PTP1B (Homo sapiens, UniProt P18031); test: PTP activity assay with pNPP substrate (IC50, Ki, mode of inhibition); format: biochemical; details: pNPP 2 mM, pH 7.0, 25° C.; read-out: IC50, nM PTP1B
T1 sequence (P18031 1-435): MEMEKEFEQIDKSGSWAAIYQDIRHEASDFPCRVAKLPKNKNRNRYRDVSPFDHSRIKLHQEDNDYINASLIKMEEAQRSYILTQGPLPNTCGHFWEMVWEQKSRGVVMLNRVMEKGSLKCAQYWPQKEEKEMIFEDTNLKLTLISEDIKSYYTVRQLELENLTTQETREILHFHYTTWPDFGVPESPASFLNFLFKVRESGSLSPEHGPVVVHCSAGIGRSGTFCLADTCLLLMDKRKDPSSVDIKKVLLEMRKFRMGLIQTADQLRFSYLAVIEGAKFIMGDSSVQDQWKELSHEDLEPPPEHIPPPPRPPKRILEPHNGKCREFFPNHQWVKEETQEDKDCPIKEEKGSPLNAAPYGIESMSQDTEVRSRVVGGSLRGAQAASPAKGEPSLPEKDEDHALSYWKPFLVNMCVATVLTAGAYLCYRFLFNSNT
Method: (§1) PTP activity was assayed using p-nitrophenyl phosphate (pNPP) as a substrate in DMG buffer (50 mM DMG. pH 7.0, 1 mM EDTA, 150 mM NaCl, 2 mM DTT, 0.1 mg/mL BSA) at 25° C. The assays were performed in 96-well plates. Normally, to determine the IC50 values, the reaction was initiated by the addition of enzyme (for PTP1B and TCPTP, the final concentration was 0.4 nM, for other PTPs, the final concentration was 10 nM) to a reaction mixture (0.2 mL) containing 2 mM (Km for the substrate) pNPP with various concentrations of inhibitors (see FIG. 1). The reaction rate was measured using a SpectraMax Plus 384 Microplate Spectrophotometer (Molecular Devices). Data were fitted using SigmaPlot Enzyme Kinetics Module (Systat Software, Inc.). To determine the mode of inhibition, the reactions were initiated by the addition of enzyme (final concentration for TC-PTP and PTP1B was 0.4 nM) to the reaction mixtures (0.2 mL) containing various concentrations of pNPP with different concentrations of the inhibitor. Data were fitted using SigmaPlot Enzyme Kinetics Module (Systat Software. Inc.).

TC-PTP [2] = target: T2, TC-PTP (Homo sapiens, UniProt P17706); test: as above; format: biochemical; details: pNPP 2 mM, pH 7.0, 25° C.; read-out: IC50, nM TC-PTP
T2 sequence (P17706 1-415): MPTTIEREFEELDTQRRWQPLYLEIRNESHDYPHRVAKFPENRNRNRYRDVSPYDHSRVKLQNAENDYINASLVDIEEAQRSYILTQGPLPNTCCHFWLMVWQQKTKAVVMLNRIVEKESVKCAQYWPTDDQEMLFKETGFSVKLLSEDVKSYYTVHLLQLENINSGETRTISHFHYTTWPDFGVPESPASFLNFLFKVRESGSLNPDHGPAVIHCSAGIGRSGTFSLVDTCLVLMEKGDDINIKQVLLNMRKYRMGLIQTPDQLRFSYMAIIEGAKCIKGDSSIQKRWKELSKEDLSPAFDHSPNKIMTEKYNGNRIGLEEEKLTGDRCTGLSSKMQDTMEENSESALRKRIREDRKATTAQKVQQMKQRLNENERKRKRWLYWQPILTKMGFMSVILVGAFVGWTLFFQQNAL
Method: as §1

PTP1B [3] = target: T1, PTP1B; test: Degradation assay in HEK293 cells (immunoblotting); format: cell-based; parameters: endogenous in cells; host or cells: HEK293; details: 0.2 μM degrader, 16 hours
Method: (§2) HEK293. MIAPaCa-2, HepG2, U2OS, H116, MEF, B16F10, and MC38 cells, were grown in DMEM, while Jurkat and H358 cells were grown in RPMI 1640 supplemented with 10% fetal bovine serum, penicillin (50 units/mL), and streptomycin (50 μg/mL) in a 37° C. incubator containing 5% CO2. 20 ng/ml human (Biolegend #713906) or mouse (Biolegend #714006) Interferon-γ were used for JAK/STAT pathway stimulation.
(§3) Tissues or cultured cells were lysed with ice-cold lysis buffer (50 mM Tris (pH 8.0, 150 mM NaCl, 10% Glycerol, 1% Triton-X-100) supplied with phosphatase inhibitor (Bimake) and protease inhibitor mixture (Roche Applied Science). Equal amounts of protein were resolved by SDS-PAGE, transferred to nitrocellulose membrane, and subjected to immunoblotting. Antibodies used in this study include anti-following proteins: pSTAT1^Tyr701 (Cell Signaling Technology #9167, 1:3000), GAPDH (Cell Signaling Technology #97166, 1:5000), pJAK1^Tyr1034/1035 (Cell Signaling Technology #74129, 1:1000), pJAK2^Tyr1007/1008 (Cell Signaling Technology #3776, 1:1000), TC-PTP (Abcam #ab180764, 1:3000). PTP1B (Abcam #ab244207, 1:1500).
(§4) Degradation assay was conducted in HEK293 cells with 1 μM degrader and 24 hours incubation.
(§5) The degradation assay was conducted in HEK293 cells with 0.2 μM degrader and 16 hours incubation.

TC-PTP [4] = target: T2, TC-PTP; test: Degradation assay in HEK293 cells (immunoblotting); format: cell-based; parameters: endogenous in cells; host or cells: HEK293; details: 0.2 μM degrader, 16 hours, read-out: % Protein Degradation TC-PTP
Method: as §2, §3, §4, §5

Structure (SMILES) | IC50 (PTP1B [1]) | IC50 (TC-PTP [2]) | % Protein Degradation PTP1B (PTP1B [3]) | percent TC-PTP degradation at 0.2 µM (TC-PTP [4])
COc1cc(CC(=O)N[C@@H](Cc2ccccc2)C(=O)N[C@@H](Cc2ccc(C(F)(F)P(=O)(O)O)cc2)C(=O)N[C@@H](CCCCNC(=O)c2ccc(C)c(Br)c2)C(=O)NCCOCCC(=O)N[C@H](C(=O)N2C[C@H](O)C[C@H]2C(=O)NCc2ccc(-c3scnc3C)cc2)C(C)(C)C)ccc1O [Compound 28, ((4-((2S,5S,15S)-5-(4-(3-bromo-4-methylbenzamido)butyl)-15-((2S,4R)-4-hydroxy-2-((4-(4-methylthiazol-5-yl)benzyl)carbamoyl)pyrrolidine-1-carbonyl)-2-((S)-2-(2-(4-hydroxy-3-methoxyphenyl)acetamido)-3-phenylpropanamido)-16,16-dimethyl-3,6,13-trioxo-10-oxa-4,7,14-triazaheptadecyl)phenyl)difluoromethyl)phosphonic Acid] ({Phenylacetyl(4-OH,3-OMe)}-F[F2Pmp]K(Benzoyl(3-Br,4-Me))[PEG1][Tle][Hyp]-{NHBn(4-(4-Me-thiazol-5-yl))}) | 15.4 ± 3.3 nM | 11.2 ± 1.3 nM | 45% | 47%
COc1cc(CC(=O)N[C@@H](Cc2ccccc2)C(=O)N[C@@H](Cc2ccc(C(F)(F)P(=O)(O)O)cc2)C(=O)N[C@@H](CCCCNC(=O)c2ccc(C)c(Br)c2)C(=O)NCc2cccc(CC(=O)N[C@H](C(=O)N3C[C@H](O)C[C@H]3C(=O)NCc3ccc(-c4scnc4C)cc3)C(C)(C)C)c2)ccc1O [Compound 48, ((4-((S)-3-(((S)-6-(3-bromo-4-methylbenzamido)-1-((3-(2-(((S)-1-((2S,4R)-4-hydroxy-2-((4-(4-methylthiazol-5-yl)benzyl)carbamoyl)pyrrolidin-1-yl)-3,3-dimethyl-1-oxobutan-2-yl)amino)-2-oxoethyl)benzyl)amino)-1-oxohexan-2-yl)amino)-2-((S)-2-(2-(4-hydroxy-3-methoxyphenyl)acetamido)-3-phenylpropanamido)-3-oxopropyl)phenyl)difluoromethyl)phosphonic Acid] ({Phenylacetyl(4-OH,3-OMe)}-F[F2Pmp]K(Benzoyl(3-Br,4-Me))[NHCH2(1,3-C6H4)CH2CO][Tle][Hyp]-{NHBn(4-(4-Me-thiazol-5-yl))}) | 16.7 ± 3.3 nM | 11.5 ± 0.6 nM | 75% | 70%
COc1cc(CC(=O)N[C@@H](Cc2ccccc2)C(=O)N[C@@H](Cc2ccc(C(F)(F)P(=O)(O)O)cc2)C(=O)N[C@@H](CCCCNC(=O)c2ccc(C)c(Br)c2)C(=O)NCc2ccc(C(=O)N[C@H](C(=O)N3C[C@H](O)C[C@H]3C(=O)NCc3ccc(-c4scnc4C)cc3)C(C)(C)C)cc2)ccc1O [Compound 54, ((4-((S)-3-(((S)-6-(3-bromo-4-methylbenzamido)-1-((4-(((S)-1-((2S,4R)-4-hydroxy-2-((4-(4-methylthiazol-5-yl)benzyl)carbamoyl)pyrrolidin-1-yl)-3,3-dimethyl-1-oxobutan-2-yl)carbamoyl)benzyl)amino)-1-oxohexan-2-yl)amino)-2-((S)-2-(2-(4-hydroxy-3-methoxyphenyl)acetamido)-3-phenylpropanamido)-3-oxopropyl)phenyl)difluoromethyl)phosphonic Acid] ({Phenylacetyl(4-OH,3-OMe)}-F[F2Pmp]K(Benzoyl(3-Br,4-Me))[4Amb][Tle][Hyp]-{NHBn(4-(4-Me-thiazol-5-yl))}) | 51.2 ± 14.4 nM | 21.3 ± 1.7 nM | 24% | 37%
COc1cc(CC(=O)N[C@@H](Cc2ccccc2)C(=O)N[C@@H](Cc2ccc(C(F)(F)P(=O)(O)O)cc2)C(=O)N[C@@H](CCCCNC(=O)c2ccc(C)c(Br)c2)C(=O)N2CCN(CCC(=O)N[C@H](C(=O)N3C[C@H](O)C[C@H]3C(=O)NCc3ccc(-c4scnc4C)cc3)C(C)(C)C)CC2)ccc1O [Compound 56, ((4-((S)-3-(((S)-6-(3-bromo-4-methylbenzamido)-1-(4-(3-(((S)-1-((2S,4R)-4-hydroxy-2-((4-(4-methylthiazol-5-yl)benzyl)carbamoyl)pyrrolidin-1-yl)-3,3-dimethyl-1-oxobutan-2-yl)amino)-3-oxopropyl)piperazin-1-yl)-1-oxohexan-2-yl)amino)-2-((S)-2-(2-(4-hydroxy-3-methoxyphenyl)acetamido)-3-phenylpropanamido)-3-oxopropyl)phenyl)difluoromethyl)phosphonic Acid] ({Phenylacetyl(4-OH,3-OMe)}-F[F2Pmp]K(Benzoyl(3-Br,4-Me))[X2][Tle][Hyp]-{NHBn(4-(4-Me-thiazol-5-yl))}) | 13.7 ± 1.9 nM | 12 ± 0.8 nM | 30% | 14%
COc1cc(CC(=O)N[C@@H](Cc2ccccc2)C(=O)N[C@@H](Cc2ccc(C(F)(F)P(=O)(O)O)cc2)C(=O)N[C@@H](CCCCNC(=O)c2ccc(C)c(Br)c2)C(=O)N2CCC(CCC(=O)N[C@H](C(=O)N3C[C@H](O)C[C@H]3C(=O)NCc3ccc(-c4scnc4C)cc3)C(C)(C)C)CC2)ccc1O [Compound 58, ((4-((S)-3-(((S)-6-(3-bromo-4-methylbenzamido)-1-(4-(3-(((S)-1-((2S,4R)-4-hydroxy-2-((4-(4-methylthiazol-5-yl)benzyl)carbamoyl)pyrrolidin-1-yl)-3,3-dimethyl-1-oxobutan-2-yl)amino)-3-oxopropyl)piperidin-1-yl)-1-oxohexan-2-yl)amino)-2-((S)-2-(2-(4-hydroxy-3-methoxyphenyl)acetamido)-3-phenylpropanamido)-3-oxopropyl)phenyl)difluoromethyl)phosphonic Acid] ({Phenylacetyl(4-OH,3-OMe)}-F[F2Pmp]K(Benzoyl(3-Br,4-Me))[X3][Tle][Hyp]-{NHBn(4-(4-Me-thiazol-5-yl))}) | 8.9 ± 0.5 nM | 8 ± 0.7 nM | 26% | 32%
